Laboratory results: PubChem BioAssay AID493181 (Southern Research Specialized Biocontainment Screening …, 2011)
The source made the active and inactive calls. The rule behind the calls is not given here. Where a SMILES comes first, the peptide text is derived from it. The star is where a group is joined. Cbz = O=C(OCc1ccccc1)*

Key:
[1] = tested on: M. tuberculosis H37Rv growth inhibition, no glycerol; experiment: M. tuberculosis growth inhibition, confirmation, H37Rv, purified and synthesized compounds (AID 493181); conditions: for IC90: 90% growth inhibition concentration
[2] = as above; conditions: M. tuberculosis H37Rv growth inhibition, no glycerol; at 100 µM (top of the series)

Structure (SMILES)	IC50 [1]	IC90 [1]	inhibition [2]
COC(=O)CCc1nc2c(C#N)c(-c3ccc(Cl)cc3)ccn2n1	0.76 µM	7.91 µM	–
COC(=O)c1cc(=O)n(-c2ccc(F)cc2)c(=Nc2ccc(F)cc2)s1	< 0.2 µM	4.51 µM	–
Cc1ccc(NC(=O)C2C3/C=C\CCCCC32)cc1C (centres undefined)	1.48 µM	1.68 µM	–
CCC(C)Nc1ccc(NC(C)CC)cc1 (centres undefined)	1.1 µM	1.5 µM	–
O=C(/C=C\c1cccs1)N1CCN(Cc2ccc3c(c2)OCO3)CC1	< 0.2 µM	2.78 µM	–
COc1cc(NC(=O)C/C(C)=N/NC(=O)c2ccccn2)c(OC)cc1Cl	3.69 µM	8.34 µM	–
O=C(/C=C/c1ccccc1)N1CCN(CCN2C(=O)c3cccc4cccc(c34)C2=O)CC1	3.17 µM	> 100 µM	–
Cc1ccc2ccc3ccc(C)nc3c2n1	< 0.2 µM	0.92 µM	–
CC(C)NC(=O)c1sc(=S)n2c1[nH]c(=O)c1ccc(C(=O)NCCc3ccc(Cl)cc3)cc12	< 0.2 µM	1.51 µM	–
CCOC(=O)C(C)Sc1ncnc2c1nnn2-c1ccc(F)cc1 (centres undefined)	1.38 µM	3.38 µM	–
O=C(CSc1nc2ccccc2c(=O)[nH]1)NC1CCCCC1	< 0.2 µM	< 0.2 µM	–
CCOC(=O)c1ccc(NC(=O)Cn2ncc(Cl)c(Cl)c2=O)cc1	< 0.2 µM	1.55 µM	–
COC(=O)C(C)Oc1ccc(-c2nccc(-c3ccccn3)n2)cc1 (centres undefined)	1.49 µM	3.31 µM	–
O=C1C(Br)=Cc2cccc3cccc1c23	< 0.2 µM	< 0.2 µM	–
Cc1cccc(/C=C/C(=O)c2ccc([N+](=O)[O-])o2)c1	< 0.2 µM	< 0.2 µM	–
CCOC(=O)CNC(=O)[C@H](Cc1ccccc1)NC(=O)OCc1ccccc1 (Cbz-Phe-Gly-OEt)	1.41 µM	2.11 µM	–
CC(=NCc1ccc2c(c1)OCO2)C1=C(O)c2ccccc2C1=O	< 0.2 µM	2.6 µM	–
COC(=O)C1CC(=O)N(c2ccc(OCc3ccccc3Cl)cc2)C1 (centres undefined)	0.83 µM	8.4 µM	–
O=C(NCC(c1cccs1)N1CCOCC1)c1cc([N+](=O)[O-])cc([N+](=O)[O-])c1 (centres undefined)	< 0.2 µM	0.78 µM	–
S=c1nc[nH]c2nc[nH]c12	1.5 µM	1.65 µM	–
CCOC(=O)COc1ccc(/C=C2\NC(=S)N(CC)C2=O)cc1	1.93 µM	3.45 µM	–
Cc1nn2c(NCc3ccccn3)cc(C(C)C)nc2c1-c1ccccc1	1.48 µM	2.67 µM	–
Oc1ccccc1/C=N/Nc1ccnc(SCc2ccccc2)n1	–	–	0.65% (inactive)
Cc1nc(SCC(=O)NC2CCCCC2)[nH]c(=O)c1C	< 0.2 µM	0.54 µM	–
CCOC(=O)COn1c2c(c3c4no[n+]([O-])c4ccc31)CCCC2	2.14 µM	3.78 µM	–
c1ccc(/N=C2\N=C(Nc3ccccn3)c3ccccc32)nc1	< 0.2 µM	< 0.2 µM	–
CNc1nc(SCc2ccccc2Cl)nc2c1CCCC2	< 0.2 µM	2.32 µM	–
Cc1ccc2c(c1)c(C1=c3ccccc3=NC1=O)c(O)n2C	0.84 µM	1.47 µM	–
O=C(CSc1nc2ccccc2c(=O)[nH]1)NCc1ccc(Cl)cc1	0.39 µM	1.82 µM	–
CCc1ccc(/C=C2/C(=O)N(C)C(=S)N2CC(=O)OC)s1	2.95 µM	7.16 µM	–
